This is an account of results in article PMC6766931, “Design, Synthesis, and Activity Evaluation of Novel N-benzyl Deoxynojirimycin Derivatives for Use as α-Glucosidase Inhibitors” (Molecules, 2019).

Molecules are shown by their SMILES.

T1 sequence (P53341 whole entry): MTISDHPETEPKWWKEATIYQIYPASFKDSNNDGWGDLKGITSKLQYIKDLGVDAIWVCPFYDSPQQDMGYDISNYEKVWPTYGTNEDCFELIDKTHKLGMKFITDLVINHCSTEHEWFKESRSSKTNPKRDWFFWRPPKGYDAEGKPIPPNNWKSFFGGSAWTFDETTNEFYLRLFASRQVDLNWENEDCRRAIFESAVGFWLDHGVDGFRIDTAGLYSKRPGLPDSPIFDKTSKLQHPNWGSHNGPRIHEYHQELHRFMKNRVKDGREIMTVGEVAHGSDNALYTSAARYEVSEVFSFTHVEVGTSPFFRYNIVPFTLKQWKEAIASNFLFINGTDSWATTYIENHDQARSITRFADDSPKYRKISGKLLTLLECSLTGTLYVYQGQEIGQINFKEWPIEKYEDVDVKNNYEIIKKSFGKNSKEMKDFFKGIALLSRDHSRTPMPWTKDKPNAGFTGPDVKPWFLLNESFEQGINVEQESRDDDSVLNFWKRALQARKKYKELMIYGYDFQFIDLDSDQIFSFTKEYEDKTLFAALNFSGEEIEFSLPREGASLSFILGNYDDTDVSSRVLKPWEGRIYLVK

One data set concerns the target T1, α-glucosidase (Saccharomyces cerevisiae, UniProt P53341).
T1 construct: purchased Sigma-Aldrich
The data set can be described thus: In vitro assay of α-glucosidase inhibitory activity (PNPG, 96-well microplates). Type of data set: biochemical. The settings on record: substrate PNPG, pH 6.8, 37 °C, read-out: IC50 (mM) ± SEM.
One may read the IC50 as the concentration needed to halve the response being measured. As for `OCC1C(O)C(O)C(O)CN1Cc1ccc(F)cc1` (stereo not shown) [Compound 12a, 1-(4-fluorobenzyl)-2-(hydroxymethyl) piperidine-3,4,5-triol], the IC50 came to 9.8 ± 0.31 mM.

Turning to `OCC1C(O)C(O)C(O)CN1Cc1ccc(Cl)cc1` (stereo not shown) [Compound 12b, 1-(4-chlorobenzyl)-2-(hydroxymethyl) piperidine-3,4,5-triol], the concentration for half-maximal inhibition (IC50) is 11.22 ± 0.02 mM.

Regarding `OCC1C(O)C(O)C(O)CN1Cc1ccc(Br)cc1` (stereo not shown) [Compound 12c, 1-(4-bromobenzyl)-2-(hydroxymethyl) Piperidine-3,4,5-triol], the half-maximal inhibitory concentration (IC50) is 12.55 ± 0.03 mM.

On to `OCC1C(O)C(O)C(O)CN1Cc1ccc(I)cc1` (stereo not shown) [Compound 12d, 2-(hydroxymethyl)-1-(4-iodobenzyl) Piperidine-3,4,5-triol], for which the IC50 worked out at 9.88 ± 0.05 mM.

With `Cc1ccc(CN2CC(O)C(O)C(O)C2CO)cc1` (stereo not shown) [Compound 12e, 2-(hydroxymethyl)-1-(4-methylbenzyl) Piperidine-3,4,5-triol], the IC50 was 8.65 ± 0.08 mM.

As for `COc1ccc(CN2CC(O)C(O)C(O)C2CO)cc1` (stereo not shown) [Compound 12f, 2-(hydroxymethyl)-1-(4-methoxybenzyl) Piperidine-3,4,5-triol], the IC50 is 1.02 ± 0.23 mM.

With `OCC1C(O)C(O)C(O)CN1Cc1cccc(F)c1` (stereo not shown) [Compound 12g, 1-(3-fluorobenzyl)-2-(hydroxymethyl) Piperidine-3,4,5-triol], the half-inhibitory concentration (IC50) came out at 10.23 ± 0.02 mM.

With `OCC1C(O)C(O)C(O)CN1Cc1cccc(Cl)c1` (stereo not shown) [Compound 12h, 1-(3-chlorobenzyl)-2-(hydroxymethyl) Piperidine-3,4,5-triol], the IC50 is 15.32 ± 0.04 mM.

Take `OCC1C(O)C(O)C(O)CN1Cc1cccc(Br)c1` (stereo not shown) [Compound 12i, 1-(3-bromobenzyl)-2-(hydroxymethyl) Piperidine-3,4,5-triol]: the 50% inhibitory concentration (IC50) came to 15.66 ± 0.04 mM.

Regarding `OCC1C(O)C(O)C(O)CN1Cc1cccc(I)c1` (stereo not shown) [Compound 12j, 2-(hydroxymethyl)-1-(3-iodobenzyl) Piperidine-3,4,5-triol], the IC50 was 10.54 ± 0.04 mM.

In the case of `Cc1cccc(CN2CC(O)C(O)C(O)C2CO)c1` (stereo not shown) [Compound 12k, 2-(hydroxymethyl)-1-(3-methylbenzyl) Piperidine-3,4,5-triol], the 50% inhibitory concentration (IC50) turned out to be 10.3 ± 0.21 mM.

For the molecule `COc1cccc(CN2CC(O)C(O)C(O)C2CO)c1` (stereo not shown) [Compound 12l, 2-(hydroxymethyl)-1-(3-methoxybenzyl) Piperidine-3,4,5-triol], the half-maximal inhibitory concentration (IC50) is 1.25 ± 0.34 mM.

In the case of `COc1cc(CN2C[C@H](O)[C@@H](O)[C@H](O)[C@H]2CO)cc(Br)c1OCc1ccccc1` [Compound 17b], the concentration for half-maximal inhibition (IC50) was determined as 15.68 ± 0.06 mM.

Consider `COc1cc(CN2CC(O)C(O)C(O)C2CO)cc(Br)c1OC` (stereo not shown) [Compound 17c, 1-(3-bromo-4,5-dimethoxybenzyl)-2-(hydroxymethyl) Piperidine-3,4,5-triol], for which the IC50 is 1.06 ± 0.11 mM.

For `COc1cc(CN2CC(O)C(O)C(O)C2CO)c(Br)c(Br)c1OC` (stereo not shown) [Compound 17d, 1-(2,3-dibromo-4,5-dimethoxybenzyl)-2-(hydroxymethyl) Piperidine-3,4,5-triol], the half-maximal inhibitory concentration (IC50) was found to be 1.14 ± 0.09 mM.

For `COc1c(Br)c(Br)c(CN2C[C@H](O)[C@@H](O)[C@H](O)[C@H]2CO)c(Br)c1OC` [Compound 17e, 2-(hydroxymethyl)-1-(2,3,6-tribromo-4,5-dimethoxybenzyl)-2-piperidine-3,4,5-triol], the concentration for half-maximal inhibition (IC50) was determined as 9.57 ± 0.08 mM.

For the molecule `COc1cc(CN2CC(O)C(O)C(O)C2CO)ccc1O` (stereo not shown) [Compound 18a, 1-(4-hydroxy-3-methoxybenzyl)-2-(hydroxymethyl) piperidine-3,4,5-triol], the IC50 amounted to 0.207 ± 0.11 mM.

Consider `COc1cc(CN2CC(O)C(O)C(O)C2CO)cc(Br)c1O` (stereo not shown) [Compound 18b, 1-(3-bromo-4-hydroxy-5-methoxybenzyl)-2-(hydroxymethyl) piperidine-3,4,5-triol], for which the IC50 stood at 0.276 ± 0.13 mM.

In another data set the target is T1, α-glucosidase. Kind of data set: Enzyme kinetics study (Michaelis-Menten, non-linear regression). It counts as biochemical. The note with it: inhibitor concentration 0.25 mM, substrate PNPG 0.1-5 mM. As for the experimental part:
In the enzyme kinetics studies, the enzyme activity was measured at different times using different concentrations of the substrate p-nitrophenyl α-D-glucopyranoside (0.1, 0.2, 0.8, 1.0, 1.2, 1.6, 1.8, 2.0, 2.5, 5 mM). The kinetics of the enzymatic reaction were fit to the Michaelis‒Menten equation. The Michaelis‒Menten equation is as follows:V = Vmax[S]/(Km + [S]).
In this equation, [S] is the concentration of the substrate, Vmax is the maximum reaction velocity of the enzymatic reaction, and Km is the Michaelis constant. […] Non-linear fitting was performed with the help of Origin 8.5, which can calculate the Vmax and Km values. The Ki constant was determined as follows:Ki = [I]/(K’m/Km − 1).
In this formula, [I] is the concentration of inhibitor, K’m is the Michaelis constant of the experimental group, and Km is the Michaelis constant of the blank group.
The same protocol was followed for the experiments reported in Figure 1 except that the inhibitor concentration was 0.25 mM and the substrate concentration was varied as indicated (0.1, 0.2, 0.8, 1.0, 1.2, 1.6, 1.8, 2.0, 2.5, 5 mM). The Km and Vmax values were calculated using […], and then, the Ki value was calculated using the formula that was mentioned in Section 2.3.
Regarding `C[C@H]1O[C@H](O[C@H]2[C@H](O)[C@@H](O)[C@@H](O[C@H]3[C@H](O)[C@@H](O)C(O)O[C@@H]3CO)O[C@@H]2CO)[C@H](O)[C@@H](O)[C@@H]1N[C@H]1C=C(CO)[C@@H](O)[C@H](O)[C@H]1O` (stereo partly shown) [Acarbose, reference compound], the Vmax was 4.40 ± 0.42 *10^−6 mmol/min.

Turning to `COc1cc(CN2CC(O)C(O)C(O)C2CO)ccc1O` (stereo not shown) [Compound 18a, 1-(4-hydroxy-3-methoxybenzyl)-2-(hydroxymethyl) piperidine-3,4,5-triol], the Vmax is recorded as 3.56 ± 0.28 *10^−6 mmol/min.

Still in this data set, the particulars now being: inhibitor concentration 0.25 mM; Ki = [I]/(K'm/Km − 1).
The Ki is a dissociation constant, usually derived from enzyme kinetics or from competition with a known ligand. Low readings indicate tighter binding, high ones weaker binding. `COc1cc(CN2CC(O)C(O)C(O)C2CO)ccc1O` (stereo not shown) [Compound 18a, 1-(4-hydroxy-3-methoxybenzyl)-2-(hydroxymethyl) piperidine-3,4,5-triol] displayed an inhibition constant (Ki) of 110 ± 300 µM.

Test system in the next data set: not given
Experiment: not given
Also on record: method as in PMID 1475231. The settings on record: rats, intravenous administration, biphasic reduction in plasma; cited from earlier work.
With `CN1C[C@H](O)[C@@H](O)[C@H](O)[C@H]1CO` [N-methyl-DNJ], the “initial t1/2 in plasma” value was 4.5 min and the “terminal t1/2 in plasma” value is given as 32 min.

Still in this data set, the particulars now being: rats, intravenous, at 120 min after administration; cited from earlier work.
Regarding `CN1C[C@H](O)[C@@H](O)[C@H](O)[C@H]1CO` [N-methyl-DNJ], the “dose recovered from the urine unchanged” value is reported as 80%.

Test system in the next data set: not given
Experiment: not given
On the set-up: method as in earlier work. The note with it: quickly metabolized and excreted; cited from earlier work.
For the molecule `OC[C@H]1NC[C@H](O)[C@@H](O)[C@@H]1O` [Compound 1-DNJ, 1-deoxynojirimycin], the “hypoglycaemic effect in vivo” value is given as “no significant hypoglycaemic effect”.
